Experimental data reported in PubChem BioAssay AID1963849 (Molecular Pharmacology Branch, DTP, NCI, 2024).

Tested on: 299254-011-R-J1-PDC complex spheroid viability
Assay: Anticancer human tumor 299254-011-R-J1-PDC patient-derived melanoma cell line growth inhibition [POLQ]
Conditions: for IC50: curve of first compound; for viability, T/C: stronger effect = lower value
Summary of the method: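 PDC + HUVEC + MSC complex spheroids; POLQ inhibitors ± partner drugs; top conc. at/near clinical Cmax, else 10 microM (SN-38 1 microM), half-log dilutions; 37 degrees C, 5% CO2.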

[1] = second compound 0.0316 µM, first compound 0.00316 µM
[2] = second compound 0.0316 µM, first compound 0.01 µM
[3] = second compound 0.0316 µM, first compound 0.0316 µM
[4] = second compound 0.0316 µM, first compound 0.1 µM
[5] = second compound 0.0316 µM, first compound 0.316 µM
[6] = second compound 0.0316 µM, first compound 1 µM
[7] = second compound 0.1 µM, first compound 0.00316 µM
[8] = second compound 0.1 µM, first compound 0.01 µM
[9] = second compound 0.1 µM, first compound 0.0316 µM
[10] = second compound 0.1 µM, first compound 0.1 µM
[11] = second compound 0.1 µM, first compound 0.316 µM
[12] = second compound 0.1 µM, first compound 1 µM
[13] = second compound 0.316 µM, first compound 0.00316 µM
[14] = second compound 0.316 µM, first compound 0.01 µM
[15] = second compound 0.316 µM, first compound 0.0316 µM
[16] = second compound 0.316 µM, first compound 0.1 µM
[17] = second compound 0.316 µM, first compound 0.316 µM
[18] = second compound 0.316 µM, first compound 1 µM
[19] = second compound 1 µM, first compound 0.00316 µM
[20] = second compound 1 µM, first compound 0.01 µM
[21] = second compound 1 µM, first compound 0.0316 µM
[22] = second compound 1 µM, first compound 0.1 µM
[23] = second compound 1 µM, first compound 0.316 µM
[24] = second compound 1 µM, first compound 1 µM
[25] = second compound 3.16 µM, first compound 0.00316 µM
[26] = second compound 3.16 µM, first compound 0.01 µM
[27] = second compound 3.16 µM, first compound 0.0316 µM
[28] = second compound 3.16 µM, first compound 0.1 µM
[29] = second compound 3.16 µM, first compound 0.316 µM
[30] = second compound 3.16 µM, first compound 1 µM
[31] = second compound 10 µM, first compound 0.00316 µM
[32] = second compound 10 µM, first compound 0.01 µM
[33] = second compound 10 µM, first compound 0.0316 µM
[34] = second compound 10 µM, first compound 0.1 µM
[35] = second compound 10 µM, first compound 0.316 µM
[36] = second compound 10 µM, first compound 1 µM
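Note: spheroids exposed to drugs for one week before measurement.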
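Throughout, for viability, T/C: percent viability relative to DMSO vehicle control taken as 100%.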

## COc1cccc(OCCCN)c1-c1cc(Nc2cnc(C#N)cn2)n[nH]1 + Nc1ccc(C#CCN(C(=O)Cc2ncc(C(F)(F)F)cc2C(F)(F)F)c2ccc(F)cc2)nn1
Second compound 0.0316 µM
  IC50: 147 nM
Second compound 0.1 µM
  IC50: 97.4 nM
Second compound 0.316 µM
  IC50: 96.8 nM
Second compound 1 µM
  IC50: 79.5 nM
Second compound 3.16 µM
  IC50: 70.6 nM
Second compound 10 µM
  IC50: 29.4 nM
[1]
  viability, T/C: 96.7%
[2]
  viability, T/C: 129%
[3]
  viability, T/C: 78.6%
[4]
  viability, T/C: 61.2%
[5]
  viability, T/C: 40.2%
[6]
  viability, T/C: 42.6%
[7]
  viability, T/C: 106%
[8]
  viability, T/C: 107%
[9]
  viability, T/C: 84.9%
[10]
  viability, T/C: 49.2%
[11]
  viability, T/C: 51.6%
[12]
  viability, T/C: 42.3%
[13]
  viability, T/C: 111%
[14]
  viability, T/C: 97.5%
[15]
  viability, T/C: 67%
[16]
  viability, T/C: 51.8%
[17]
  viability, T/C: 40%
[18]
  viability, T/C: 35.5%
[19]
  viability, T/C: 98.3%
[20]
  viability, T/C: 111%
[21]
  viability, T/C: 72.2%
[22]
  viability, T/C: 51.6%
[23]
  viability, T/C: 41.8%
[24]
  viability, T/C: 37.2%
[25]
  viability, T/C: 115%
[26]
  viability, T/C: 79.6%
[27]
  viability, T/C: 63.9%
[28]
  viability, T/C: 41.7%
[29]
  viability, T/C: 37%
[30]
  viability, T/C: 46.6%
[31]
  viability, T/C: 121%
[32]
  viability, T/C: 75.1%
[33]
  viability, T/C: 48.9%
[34]
  viability, T/C: 38%
[35]
  viability, T/C: 32.3%
[36]
  viability, T/C: 35.7%

## CCCS(=O)(=O)Nc1ccc(F)c(C(=O)c2c[nH]c3ncc(-c4ccc(Cl)cc4)cc23)c1F + Nc1ccc(C#CCN(C(=O)Cc2ncc(C(F)(F)F)cc2C(F)(F)F)c2ccc(F)cc2)nn1
Second compound 0.0316 µM
  IC50: 9620 nM
Second compound 0.1 µM
  IC50: 9010 nM
Second compound 0.316 µM
  IC50: 9950 nM
Second compound 1 µM
  IC50: 8980 nM
Second compound 3.16 µM
  IC50: > 10000 nM
Second compound 10 µM
  IC50: > 10000 nM
[3]
  viability, T/C: 109%
[4]
  viability, T/C: 128%
[5]
  viability, T/C: 122%
[6]
  viability, T/C: 120%
Second compound 0.0316 µM, first compound 3.16 µM
  viability, T/C: 108%
Second compound 0.0316 µM, first compound 10 µM
  viability, T/C: 47.8%
[9]
  viability, T/C: 92.7%
[10]
  viability, T/C: 117%
[11]
  viability, T/C: 119%
[12]
  viability, T/C: 110%
Second compound 0.1 µM, first compound 3.16 µM
  viability, T/C: 104%
Second compound 0.1 µM, first compound 10 µM
  viability, T/C: 44.6%
[15]
  viability, T/C: 97.5%
[16]
  viability, T/C: 93.5%
[17]
  viability, T/C: 112%
[18]
  viability, T/C: 111%
Second compound 0.316 µM, first compound 3.16 µM
  viability, T/C: 129%
Second compound 0.316 µM, first compound 10 µM
  viability, T/C: 49.7%
[21]
  viability, T/C: 97.3%
[22]
  viability, T/C: 99.2%
[23]
  viability, T/C: 106%
[24]
  viability, T/C: 121%
Second compound 1 µM, first compound 3.16 µM
  viability, T/C: 122%
Second compound 1 µM, first compound 10 µM
  viability, T/C: 43.8%
[27]
  viability, T/C: 108%
[28]
  viability, T/C: 140%
[29]
  viability, T/C: 140%
[30]
  viability, T/C: 101%
Second compound 3.16 µM, first compound 3.16 µM
  viability, T/C: 106%
Second compound 3.16 µM, first compound 10 µM
  viability, T/C: 50.7%
[33]
  viability, T/C: 94.8%
[34]
  viability, T/C: 98.6%
[35]
  viability, T/C: 109%
[36]
  viability, T/C: 102%
Second compound 10 µM, first compound 3.16 µM
  viability, T/C: 98.5%
Second compound 10 µM, first compound 10 µM
  viability, T/C: 57%

## Cn1ncnc1[C@H]1c2n[nH]c(=O)c3cc(F)cc(c23)N[C@@H]1c1ccc(F)cc1 + COC1C(OC(N)=O)C(O)C(Oc2ccc3c(O)c(NC(=O)c4ccc(O)c(CC=C(C)C)c4)c(=O)oc3c2C)OC1(C)C
Second compound 0.0316 µM
  IC50: > 100 nM
Second compound 0.1 µM
  IC50: > 100 nM
Second compound 0.316 µM
  IC50: > 100 nM
Second compound 1 µM
  IC50: > 100 nM
Second compound 3.16 µM
  IC50: > 100 nM
Second compound 10 µM
  IC50: > 100 nM
Second compound 0.0316 µM, first compound 0.000316 µM
  viability, T/C: 106%
Second compound 0.0316 µM, first compound 0.001 µM
  viability, T/C: 84.4%
[1]
  viability, T/C: 101%
[2]
  viability, T/C: 98.8%
[3]
  viability, T/C: 97%
[4]
  viability, T/C: 98.1%
Second compound 0.1 µM, first compound 0.000316 µM
  viability, T/C: 101%
Second compound 0.1 µM, first compound 0.001 µM
  viability, T/C: 91.3%
[7]
  viability, T/C: 105%
[8]
  viability, T/C: 90.9%
[9]
  viability, T/C: 106%
[10]
  viability, T/C: 87.6%
Second compound 0.316 µM, first compound 0.000316 µM
  viability, T/C: 89.4%
Second compound 0.316 µM, first compound 0.001 µM
  viability, T/C: 94.6%
[13]
  viability, T/C: 101%
[14]
  viability, T/C: 92%
[15]
  viability, T/C: 107%
[16]
  viability, T/C: 96.2%
Second compound 1 µM, first compound 0.000316 µM
  viability, T/C: 105%
Second compound 1 µM, first compound 0.001 µM
  viability, T/C: 111%
[19]
  viability, T/C: 102%
[20]
  viability, T/C: 118%
[21]
  viability, T/C: 96.5%
[22]
  viability, T/C: 97.4%
Second compound 3.16 µM, first compound 0.000316 µM
  viability, T/C: 99.7%
Second compound 3.16 µM, first compound 0.001 µM
  viability, T/C: 103%
[25]
  viability, T/C: 98.9%
[26]
  viability, T/C: 93.2%
[27]
  viability, T/C: 103%
[28]
  viability, T/C: 100%
Second compound 10 µM, first compound 0.000316 µM
  viability, T/C: 106%
Second compound 10 µM, first compound 0.001 µM
  viability, T/C: 105%
[31]
  viability, T/C: 115%
[32]
  viability, T/C: 112%
[33]
  viability, T/C: 119%
[34]
  viability, T/C: 99.6%
